Reference: ChEMBL document CHEMBL1201862, “PubChem BioAssay data set” (2004)
Calls of active or inactive are those of the source.

Legend:
Protein skinhead-1 = molecular target: T1, Protein skinhead-1 (Caenorhabditis elegans, UniProt P34707); format: functional
T1 sequence (P34707 whole entry): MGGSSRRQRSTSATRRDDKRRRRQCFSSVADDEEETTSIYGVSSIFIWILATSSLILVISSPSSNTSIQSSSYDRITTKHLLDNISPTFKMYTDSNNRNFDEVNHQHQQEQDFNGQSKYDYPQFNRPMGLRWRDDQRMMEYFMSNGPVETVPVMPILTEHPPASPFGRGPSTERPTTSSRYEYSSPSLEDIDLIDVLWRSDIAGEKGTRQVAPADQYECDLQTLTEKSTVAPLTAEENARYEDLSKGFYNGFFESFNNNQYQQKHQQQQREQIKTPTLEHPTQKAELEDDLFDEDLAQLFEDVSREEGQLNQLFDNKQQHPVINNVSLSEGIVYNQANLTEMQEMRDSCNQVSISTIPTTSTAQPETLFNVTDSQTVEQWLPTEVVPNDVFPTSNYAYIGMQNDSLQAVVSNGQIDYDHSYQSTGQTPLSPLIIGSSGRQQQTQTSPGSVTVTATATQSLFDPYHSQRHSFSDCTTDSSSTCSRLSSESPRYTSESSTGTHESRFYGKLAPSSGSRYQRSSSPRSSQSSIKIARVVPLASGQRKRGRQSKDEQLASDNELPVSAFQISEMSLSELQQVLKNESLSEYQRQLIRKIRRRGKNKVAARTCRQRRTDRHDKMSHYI

[1] = molecular target: T2, Polyadenylate-binding protein 1 (Homo sapiens, UniProt P11940); test: MLLE domain peptide-binding blockers, IC50 – biochemical, fluorescence polarization, FITC-PAM2 peptide, dose response (AID 602259); format: functional; conditions: read-out: IC50_Mean
[2] = molecular target: T2, Polyadenylate-binding protein 1; test: MLLE binding blockers, Cy5 peptide tracer – biochemical, fluorescence polarization, Cy5-PAM2 peptide, secondary, miRNA deadenylation inhibitor project, dose response (AID 602260); format: functional; conditions: read-out: IC50_Mean
[3] = system: Streptococcus sp. 'group A'; test: Streptococcus pyogenes SK(-)GAS viability under kanamycin – luminescence, BacTiterGlo, confirmation, counter-screen for streptokinase expression inhibitor project, dose response (AID 1900); format: functional, organism-based
Streptokinase A = molecular target: T3, Streptokinase A (Streptococcus pyogenes serotype M1, UniProt P10520); test: viability-normalized secreted streptokinase activity reduction – plasminogen activation absorbance, OD405, dose response (AID 1914); format: functional, Streptococcus pyogenes M1 GAS;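 also: secreted streptokinase activity via plasminogen activation per viability signal from cell pellet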
T3 sequence (P10520 whole entry): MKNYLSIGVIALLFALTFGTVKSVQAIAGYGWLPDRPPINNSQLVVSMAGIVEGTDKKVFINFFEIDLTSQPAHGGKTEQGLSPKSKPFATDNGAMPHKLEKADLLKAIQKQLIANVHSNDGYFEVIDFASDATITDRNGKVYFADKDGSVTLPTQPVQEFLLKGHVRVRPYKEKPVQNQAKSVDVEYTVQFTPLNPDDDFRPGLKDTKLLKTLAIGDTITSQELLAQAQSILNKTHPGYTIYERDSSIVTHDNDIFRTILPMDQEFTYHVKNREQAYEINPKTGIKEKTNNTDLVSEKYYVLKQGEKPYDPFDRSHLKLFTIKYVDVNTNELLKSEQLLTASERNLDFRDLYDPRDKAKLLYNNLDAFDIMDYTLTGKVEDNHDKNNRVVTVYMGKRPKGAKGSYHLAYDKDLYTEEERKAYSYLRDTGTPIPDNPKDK

Genome polyprotein = Genome polyprotein (dengue virus type 2, UniProt P29990); test: flavivirus cap methylation enzyme inhibition – biochemical, confirmation dose response, primary screen (AID 588689); format: functional
Streptococcus = test: GAS UMAA2166 growth inhibition – luminescence, BacTiterGlo, counter-screen for streptokinase expression inhibitor project, dose response (AID 1915); format: functional, organism-based;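 also: potency for reduction of bacterial viability or growth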
[4] = molecular target: T4, Calpain-2 catalytic subunit (Sus scrofa, UniProt P43367); test: m-calpain protease blockers, concentration series – biochemical, fluorogenic peptide substrate, dose response (AID 1420); format: functional
T4 sequence (P43367 whole entry): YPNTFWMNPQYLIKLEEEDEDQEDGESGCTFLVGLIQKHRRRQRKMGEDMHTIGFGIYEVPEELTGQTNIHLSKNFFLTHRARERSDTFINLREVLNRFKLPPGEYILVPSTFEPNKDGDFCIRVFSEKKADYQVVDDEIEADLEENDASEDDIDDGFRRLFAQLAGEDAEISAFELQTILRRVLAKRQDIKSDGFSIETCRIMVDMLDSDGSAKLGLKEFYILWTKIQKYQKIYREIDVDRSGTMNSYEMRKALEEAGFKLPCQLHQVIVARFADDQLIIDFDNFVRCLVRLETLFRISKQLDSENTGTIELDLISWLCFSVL

[5] = molecular target: Induced myeloid leukemia cell differentiation protein Mcl-1 (Homo sapiens, UniProt Q07820); format: functional
[6] = molecular target: T5, Long-chain-fatty-acid--AMP ligase FadD28 (Mycobacterium tuberculosis, UniProt P9WQ59); test: Fluorescence polarization aasay to screen for inhibitors that compete for the binding of FadD28 to a bisubstrate Measured in Biochemical System Using Plate Reader - 2147-01_Inhibitor_Dose_CherryPick_Activity.; format: functional, Mycobacterium tuberculosis H37Rv
T5 sequence (P9WQ59 whole entry): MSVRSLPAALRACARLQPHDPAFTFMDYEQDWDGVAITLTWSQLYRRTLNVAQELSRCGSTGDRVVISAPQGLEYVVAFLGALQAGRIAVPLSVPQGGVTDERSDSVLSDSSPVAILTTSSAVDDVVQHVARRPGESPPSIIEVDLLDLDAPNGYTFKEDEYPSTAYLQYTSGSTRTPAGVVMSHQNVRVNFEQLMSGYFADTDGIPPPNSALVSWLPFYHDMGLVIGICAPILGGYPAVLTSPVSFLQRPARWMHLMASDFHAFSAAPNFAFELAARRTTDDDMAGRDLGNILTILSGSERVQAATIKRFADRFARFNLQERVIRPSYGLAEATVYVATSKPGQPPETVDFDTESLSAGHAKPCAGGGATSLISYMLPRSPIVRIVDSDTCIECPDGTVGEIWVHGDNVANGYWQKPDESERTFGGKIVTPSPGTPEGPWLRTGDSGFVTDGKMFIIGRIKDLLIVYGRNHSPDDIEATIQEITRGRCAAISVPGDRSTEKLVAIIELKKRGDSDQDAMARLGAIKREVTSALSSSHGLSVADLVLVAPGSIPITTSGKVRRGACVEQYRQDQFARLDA

[7] = molecular target: T6, Rac GTPase-activating protein 1 (Homo sapiens, UniProt Q9H0H5); test: blockers of MgcRacGAP-driven Rac1 GTP hydrolysis – biochemical, ADP Hunter fluorescence, primary and confirmatory, confirmation (AID 624330); format: functional
T6 sequence (Q9H0H5 whole entry): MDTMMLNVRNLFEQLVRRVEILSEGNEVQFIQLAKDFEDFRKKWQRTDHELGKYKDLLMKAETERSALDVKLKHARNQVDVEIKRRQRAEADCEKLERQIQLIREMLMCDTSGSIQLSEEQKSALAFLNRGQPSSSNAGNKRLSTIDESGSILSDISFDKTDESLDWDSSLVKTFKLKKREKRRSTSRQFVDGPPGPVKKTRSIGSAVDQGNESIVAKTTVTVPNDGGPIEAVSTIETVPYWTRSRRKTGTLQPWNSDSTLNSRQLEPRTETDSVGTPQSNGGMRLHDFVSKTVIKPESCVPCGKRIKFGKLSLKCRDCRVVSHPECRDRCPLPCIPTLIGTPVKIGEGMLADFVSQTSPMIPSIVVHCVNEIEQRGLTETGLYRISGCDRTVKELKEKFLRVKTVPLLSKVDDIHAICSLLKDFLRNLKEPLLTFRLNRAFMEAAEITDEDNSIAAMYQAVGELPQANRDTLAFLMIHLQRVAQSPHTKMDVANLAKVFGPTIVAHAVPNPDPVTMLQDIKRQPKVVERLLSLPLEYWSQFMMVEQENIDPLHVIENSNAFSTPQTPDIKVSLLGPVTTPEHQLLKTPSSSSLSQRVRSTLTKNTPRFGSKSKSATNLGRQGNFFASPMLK

Paired box protein Pax-8 = Paired box protein Pax-8 (Homo sapiens, UniProt Q06710); test: PAX8 transcriptional activity inhibition in RMG-I – RMG-I cells, luciferase, cherry-pick, dose response (AID 687027); format: functional, cell-based;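 also: luciferase reporter driven by Pax8 target thyroperoxidase promoter measured by SteadyGlo luminescence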
[8] = HIV-1 AD8 envelope cell-cell fusion blockers – cherry-pick, dose response (AID 652062); format: functional, cell-based;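 also: luciferase signal from cell-cell fusion driven by HIV-1 clade B AD8 Env; potency is for inhibitors of fusion seen as a drop in luminescence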
[9] = blockers of HIV-1 envelope-mediated cell-cell fusion – cherry-pick, dose response (AID 652057); format: functional, cell-based
cells [10] = format: functional, cell-based
cells [11] = format: functional, cell-based; remark: listed apart in the source

T2 sequence (P11940 whole entry, the tested form may be a part): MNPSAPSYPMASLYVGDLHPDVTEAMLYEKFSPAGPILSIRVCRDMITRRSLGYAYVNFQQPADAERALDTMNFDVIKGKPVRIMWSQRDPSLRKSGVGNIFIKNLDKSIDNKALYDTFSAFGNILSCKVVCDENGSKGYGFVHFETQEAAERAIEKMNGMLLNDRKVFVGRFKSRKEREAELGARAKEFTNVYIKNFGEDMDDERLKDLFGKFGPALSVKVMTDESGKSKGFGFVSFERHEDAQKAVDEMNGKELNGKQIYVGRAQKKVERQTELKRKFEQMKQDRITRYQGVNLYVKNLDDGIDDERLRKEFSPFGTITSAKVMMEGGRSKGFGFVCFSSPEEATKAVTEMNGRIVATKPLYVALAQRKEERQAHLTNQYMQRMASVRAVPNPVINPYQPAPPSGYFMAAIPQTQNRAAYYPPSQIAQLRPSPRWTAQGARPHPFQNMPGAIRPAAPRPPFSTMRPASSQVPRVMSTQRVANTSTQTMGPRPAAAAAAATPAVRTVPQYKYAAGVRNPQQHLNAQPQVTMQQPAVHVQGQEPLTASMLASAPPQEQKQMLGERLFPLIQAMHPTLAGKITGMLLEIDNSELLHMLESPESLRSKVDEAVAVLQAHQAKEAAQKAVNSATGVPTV
Genome polyprotein, sequence (P29990 2492-3391 limits assumed): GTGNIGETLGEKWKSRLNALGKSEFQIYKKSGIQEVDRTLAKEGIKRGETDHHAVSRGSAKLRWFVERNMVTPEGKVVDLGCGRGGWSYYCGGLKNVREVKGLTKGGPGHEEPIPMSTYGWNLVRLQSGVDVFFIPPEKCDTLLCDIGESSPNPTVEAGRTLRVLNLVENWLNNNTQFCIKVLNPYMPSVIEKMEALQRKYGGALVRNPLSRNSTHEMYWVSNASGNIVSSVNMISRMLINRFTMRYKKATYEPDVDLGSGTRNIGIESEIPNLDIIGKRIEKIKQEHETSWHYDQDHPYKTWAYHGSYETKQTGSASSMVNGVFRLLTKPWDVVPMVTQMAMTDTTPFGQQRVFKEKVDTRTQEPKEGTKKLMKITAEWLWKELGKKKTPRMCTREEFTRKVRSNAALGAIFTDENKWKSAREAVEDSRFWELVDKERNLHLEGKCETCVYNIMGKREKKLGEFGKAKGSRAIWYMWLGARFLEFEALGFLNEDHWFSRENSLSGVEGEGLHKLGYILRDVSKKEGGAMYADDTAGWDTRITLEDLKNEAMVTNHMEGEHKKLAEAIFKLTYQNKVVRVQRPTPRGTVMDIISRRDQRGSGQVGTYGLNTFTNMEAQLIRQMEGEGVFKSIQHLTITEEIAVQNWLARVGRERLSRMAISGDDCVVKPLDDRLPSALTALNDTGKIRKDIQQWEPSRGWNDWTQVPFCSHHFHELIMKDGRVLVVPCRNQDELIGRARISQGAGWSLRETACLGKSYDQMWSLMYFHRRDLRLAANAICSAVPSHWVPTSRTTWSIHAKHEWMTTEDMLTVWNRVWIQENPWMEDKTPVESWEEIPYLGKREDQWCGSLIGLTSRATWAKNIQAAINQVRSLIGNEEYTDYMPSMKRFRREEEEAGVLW
Paired box protein Pax-8, sequence (Q06710 whole entry, the tested form may be a part): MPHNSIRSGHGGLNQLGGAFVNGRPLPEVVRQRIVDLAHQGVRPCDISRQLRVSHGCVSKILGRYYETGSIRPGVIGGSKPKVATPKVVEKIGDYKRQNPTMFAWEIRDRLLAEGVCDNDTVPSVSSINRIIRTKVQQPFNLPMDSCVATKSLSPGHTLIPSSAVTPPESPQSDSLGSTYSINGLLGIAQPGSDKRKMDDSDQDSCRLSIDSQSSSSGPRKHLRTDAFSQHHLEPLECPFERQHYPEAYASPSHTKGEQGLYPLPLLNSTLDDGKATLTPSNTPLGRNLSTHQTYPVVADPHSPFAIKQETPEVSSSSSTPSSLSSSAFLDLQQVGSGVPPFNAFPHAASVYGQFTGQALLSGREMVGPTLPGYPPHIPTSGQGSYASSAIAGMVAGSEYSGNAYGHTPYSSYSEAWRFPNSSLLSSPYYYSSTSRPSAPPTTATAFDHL
Induced myeloid leukemia cell differentiation protein Mcl-1, sequence (Q07820 whole entry): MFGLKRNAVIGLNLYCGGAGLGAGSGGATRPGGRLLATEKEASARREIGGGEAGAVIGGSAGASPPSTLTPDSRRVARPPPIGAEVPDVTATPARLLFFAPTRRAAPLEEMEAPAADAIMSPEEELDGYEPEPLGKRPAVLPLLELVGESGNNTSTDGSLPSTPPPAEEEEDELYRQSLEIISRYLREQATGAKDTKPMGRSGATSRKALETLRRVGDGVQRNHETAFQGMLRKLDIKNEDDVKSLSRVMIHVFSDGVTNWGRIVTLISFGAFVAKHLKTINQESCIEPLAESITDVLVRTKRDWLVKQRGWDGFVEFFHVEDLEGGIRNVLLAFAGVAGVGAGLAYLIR

## c1ccc(-c2csc(-c3cccnc3)n2)cc1
Protein skinhead-1
  IC50: 40.4 µM (active)

## O=C(c1nc2ccccn2c1CN1CCCC(O)C1)N1CCN(C2CCCCC2)CC1 (stereo not drawn)
[1]
  IC50: > 66 µM (inactive)
[2]
  IC50: > 66 µM (inactive)

## Cc1c(C(=O)NC(=S)Nc2ccc3c4c(cccc24)CC3)cccc1[N+](=O)[O-]
[1]
  IC50: > 66 µM (inactive)
[2]
  IC50: > 66 µM (inactive)

## COCCNC(=O)c1c(NC(=O)c2ccco2)n(Cc2ccccc2)c2nc3ccccc3nc12
[3]
  EC50: 12.8 µM (active)
Streptokinase A
  EC50: > 150 µM (not active)
Genome polyprotein
  IC50: > 100 µM (active)
Streptococcus
  EC50: > 150 µM (not active)

## O=C1c2cccc3cccc(c23)C(=O)N1CCCN1CCN(c2ccc(F)cc2)CC1
[4]
  IC50: 8.84 µM (not active)

## O=C1NC(=S)N(c2ccccc2F)C(=O)/C1=C\c1cccs1
[5]
  IC50: 2.07 µM (active)
Genome polyprotein
  IC50: 70.3 µM (active)

## Cc1c(N2C(=O)/C(=C3\C(=O)N(CC(=O)O)c4ccccc43)SC2=S)c(=O)n(-c2ccccc2)n1C
[1]
  IC50: > 66 µM (inactive)
[2]
  IC50: > 66 µM (inactive)

## Cc1cc2c(C)ccc(C)c2nc1SCC(=O)c1cccs1
[4]
  IC50: < 0.4 µM (not active)

## COC(=O)Nc1ccc(SCC(=O)c2cccc([N+](=O)[O-])c2)cc1
[1]
  IC50: > 66 µM (inactive)
[2]
  IC50: > 66 µM (inactive)

## CCOCCCn1c(=N)c(S(=O)(=O)c2ccc(C)cc2)cc2c(=O)n3cc(C)ccc3nc21
[1]
  IC50: 53.1 µM (inactive)
[2]
  IC50: > 66 µM (inactive)

## COc1cc(/C=C2/SC(NS(=O)(=O)Cc3ccccc3)=NC2=O)c([N+](=O)[O-])cc1OC
Genome polyprotein
  IC50: 76.1 µM (active)

## NC(=O)C1CCN(c2oc(-c3ccccc3F)nc2S(=O)(=O)c2ccc(Cl)cc2)CC1
Protein skinhead-1
  IC50: > 100 µM (inactive)

## O=C(Nc1ccc2oc(-c3ccccc3)nc2c1)c1cccnc1
Protein skinhead-1
  IC50: > 100 µM (inactive)

## O=C(O)c1ccccc1SC1CC(=O)N(c2ccc3c(c2)OCO3)C1=O (stereo not drawn)
[1]
  IC50: > 66 µM (inactive)
[2]
  IC50: > 66 µM (inactive)

## COc1ccc(C(=O)OCC(=O)c2ccccc2)cc1S(=O)(=O)N1CCOCC1
[6]
  AC50: > 100 µM (inactive)

## COc1cccc(NC(=O)Cn2c(=O)oc3ccccc32)c1
[6]
  AC50: 8.71 µM (active)

## C=CCc1cc(C)ccc1OCCCn1ccnc1
[7]
  IC50: 127 µM (active)

## N#C/C(=C\c1cccs1)C(=O)c1ccccc1
Genome polyprotein
  IC50: > 100 µM (active)

## COc1cccc(CNc2ccc(F)c([N+](=O)[O-])c2)c1O
[4]
  IC50: 7.78 µM (active)

## CCCCn1c(S)nnc1-c1csc(CCC)c1
[4]
  IC50: 24.1 µM (not active)

## Cc1cc(NC(=O)CSc2nc3sc4c(c3c(=O)n2C)CCCC4)no1
[4]
  IC50: 25.2 µM (not active)

## Cc1onc(-c2c(F)cccc2Cl)c1C(=O)NC(=S)NC1CCSC1=O (stereo not drawn)
[1]
  IC50: > 66 µM (inactive)
[2]
  IC50: > 66 µM (inactive)

## CC(C)(C)N(Cc1ccc2c(c1)OCO2)C(=O)/C=C\[S+]([O-])c1ccccc1 (stereo not drawn)
[7]
  IC50: 125 µM (active)
Paired box protein Pax-8
  AC50: 6.14 µM (active)

## C=CCn1c(SCC(=O)c2c(N)n(C)c(=O)n(C)c2=O)nnc1-c1ccoc1C
Protein skinhead-1
  IC50: > 100 µM (inactive)

## C=CCSc1nnc2c(n1)-c1cccc3cccc-2c13
Protein skinhead-1
  IC50: 18.2 µM (active)

## O=C(CSc1nc(O)cc(=O)n1-c1ccccc1)Nc1nc2ccccc2s1
[6]
  AC50: 32 µM (active)

## COc1ccc2c(c1)Cc1cc(NC(=O)c3ccccc3-c3ccccc3C(=O)O)ccc1-2
[6]
  AC50: 89.9 µM (active)
Genome polyprotein
  IC50: 46.3 µM (active)

## COc1ccccc1N1CCN(C(=O)[C@H](C)NS(=O)(=O)c2ccc3c(c2)OCCCO3)CC1
[1]
  IC50: > 66 µM (inactive)
[2]
  IC50: > 66 µM (inactive)

## COc1cccc(S(=O)(=O)N(C)C[C@@H]2Oc3cc(C#CCC(C)C)ccc3S(=O)(=O)N([C@H](C)CO)C[C@@H]2C)c1
[8]
  AC50: 17.9 µM (active)
[9]
  AC50: 20.1 µM (active)

## COc1cc(/C=N/NC(=O)CNC(=O)c2ccc3c(c2)OCCO3)ccc1O
[7]
  IC50: 54.9 µM (active)

## Oc1nncc(N/N=C\c2cccs2)c1Cl
Cells [10]
  IC50: > 29.9 µM (inactive)
Cells [11]
  EC50: > 29.9 µM (inactive)

## O=c1c(-c2ccc(O)cc2)coc2cc(O)ccc12 [DAIDZEIN]
[7]
  IC50: 91.3 µM (active)
